This is an account of results in patent US11590142B2, “Oxazolidinone antibiotic compounds and process of preparation” (Bugworks Research, Inc., priority 2018, dated 2023).

Assay type in all cases: cell-based
Series [1] relates to K. pneumoniae clinical strains. Put plainly: Antibacterial susceptibility studies (MIC50 and MIC90), clinical strains, CLSI guidelines.
In series [2] the test system is E. cloacae clinical strains. Described as above.
The target of series [3] is human ether a go-go related gene (hERG) K+ channel (Homo sapiens (Human), UniProt Q12809). Description: hERG inhibition assay, QPatch HTX automated electrophysiology. The following applies: CHO cell line stably expressing hERG, whole-cell patch clamp, maximum test concentration 300 μM. Here is the method: The compounds were tested for inhibition of the human ether a go-go related gene (hERG) K+ channel using QPatch HTX automated electrophysiology. […] Compounds were solubilised to 100 mM in DMSO before dilution in HBPS to 300 μM. […] Electrophysiological recordings were made from a Chinese Hamster Ovary cell line stably expressing the full-length hERG potassium channel. Single cell ionic currents were measured in whole-cell patch clamp configuration at room temperature (21-23° C.) using the QPatch HTX platform (Sophion). Intracellular solution contained (mM): 120 KF, 20 KCl, 10 EGTA, 10 HEPES and was buffered to pH 7.3. […] Cells were clamped at a holding potential of −80 mV. Cells were stepped to +20 mV for 2 s then −40 mV for 3s before returning to the holding potential. This sweep was repeated 10 times at 10 s intervals. hERG currents were measured from the tail step and referenced to the holding current. Compounds were then incubated for 2 minutes prior to a second measurement of ion channel current using an identical pulse train.
Chain of human ether a go-go related gene (hERG) K+ channel (Q12809 whole entry): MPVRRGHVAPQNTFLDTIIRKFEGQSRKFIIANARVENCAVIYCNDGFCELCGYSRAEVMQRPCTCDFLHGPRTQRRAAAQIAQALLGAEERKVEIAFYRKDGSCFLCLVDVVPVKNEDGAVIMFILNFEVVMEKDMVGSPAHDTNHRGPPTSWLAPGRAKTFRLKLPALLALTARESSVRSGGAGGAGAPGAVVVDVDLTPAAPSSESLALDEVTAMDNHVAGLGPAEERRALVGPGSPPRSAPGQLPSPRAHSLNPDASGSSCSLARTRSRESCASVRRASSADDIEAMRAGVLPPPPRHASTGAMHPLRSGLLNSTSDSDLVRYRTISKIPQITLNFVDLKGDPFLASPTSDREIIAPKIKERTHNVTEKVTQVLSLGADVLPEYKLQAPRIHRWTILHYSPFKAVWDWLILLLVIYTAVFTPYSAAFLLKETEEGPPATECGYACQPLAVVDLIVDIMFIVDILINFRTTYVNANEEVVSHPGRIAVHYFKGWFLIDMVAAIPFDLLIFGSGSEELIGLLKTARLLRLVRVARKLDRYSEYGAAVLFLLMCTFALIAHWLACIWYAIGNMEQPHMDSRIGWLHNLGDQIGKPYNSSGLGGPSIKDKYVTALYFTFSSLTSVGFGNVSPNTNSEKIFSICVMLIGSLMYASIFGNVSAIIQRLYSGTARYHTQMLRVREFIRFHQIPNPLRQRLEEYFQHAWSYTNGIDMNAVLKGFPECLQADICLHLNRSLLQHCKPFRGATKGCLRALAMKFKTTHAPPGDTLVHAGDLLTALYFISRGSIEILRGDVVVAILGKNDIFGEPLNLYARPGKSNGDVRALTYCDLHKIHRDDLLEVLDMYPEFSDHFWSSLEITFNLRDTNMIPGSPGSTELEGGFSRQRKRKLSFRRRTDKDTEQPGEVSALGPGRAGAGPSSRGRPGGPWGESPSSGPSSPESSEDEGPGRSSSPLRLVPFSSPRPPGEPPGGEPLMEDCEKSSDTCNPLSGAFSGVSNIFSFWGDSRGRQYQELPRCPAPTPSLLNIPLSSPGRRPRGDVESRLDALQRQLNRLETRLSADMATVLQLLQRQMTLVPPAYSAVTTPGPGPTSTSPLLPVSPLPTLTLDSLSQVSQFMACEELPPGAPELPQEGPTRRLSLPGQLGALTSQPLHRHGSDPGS

Series [4] deals with A. baumannii clinical strains. Description: Antibacterial susceptibility studies (MIC50 and MIC90), clinical strains, CLSI guidelines. To be noted: for Minimum (MIC): in µg/mL.
Series [5] has as its system A. baumannii ATCC19606. Description: Antibacterial susceptibility study, reference strain, CLSI guidelines.
The subject of series [6] is P. aurigenosa ATCC27853. The series is described as above.
Series [7] relates to P. aurigenosa clinical strains. Put plainly: Antibacterial susceptibility studies (MIC50 and MIC90), clinical strains, CLSI guidelines.
Series [8] concerns K. pneumoniae ATCC13883. Put plainly: Antibacterial susceptibility study, reference strain, CLSI guidelines.
Series [9] relates to Pseudomonas aeruginosa ATCC 27853. Put plainly: Minimum Inhibitory Concentration (MIC) in LB media. The following applies: ATCC27853, read-out: Minimum Inhibitory Concentration P. aurigenosa ATCC 27853. Here is the method: (§1) Biological Activity (Antibacterial activity): The compounds of Formula (I) are of interest due to their potent antibacterial effects. […] The medium sterility is checked by incubating at 37° C. for a period of 48 h. Bacterial cultures that are stored as glycerol stocks at -80° C. are sub cultured on LB agar plates to obtain isolated colonies. A single colony of each strain is cultured in LB broth. The cultures are incubated at 37° C., 200 rpm till they reach an optical density (OD at 600 nm) of 0.8 to 1. […] Test compounds are dissolved in dimethyl sulfoxide (DMSO) to a stock concentration of 4 mg/mi. A twofold dilution series of this DMSO stock is prepared in a 96 well V bottom microtitre plate from rows A to H. A 3 μL volume of these dilutions are transferred to a 96-well flat bottom microtitre assay plate. Controls to monitor the effects of DMSO and media sterility are included. Each well is inoculated with 150 μL of the above diluted culture. The plates are incubated at 37° C. overnight in a humidified incubator. The following morning, the plates are read using a Spectrophotometer at 600 nm wavelength.

Series [10] relates to Enterococcus faecalis ATCC 29212. Description: Minimum Inhibitory Concentration (MIC) in LB media. The following applies: ATCC29212, read-out: Minimum Inhibitory Concentration E. faecalis ATCC 29212. Here is the method:
as §1

In series [11] the test system is Escherichia coli ATCC 25922. Put plainly: Minimum Inhibitory Concentration (MIC) in LB media. To be noted: ATCC25922, read-out: Minimum Inhibitory Concentration E. coli ATCC 25922. Here is the method: as §1
The subject of series [12] is Acinetobacter baumannii ATCC 19606. Put plainly: Minimum Inhibitory Concentration (MIC) in LB media. The following applies: ATCC19606. Here is the method:
as §1

Series [13] relates to Staphylococcus aureus ATCC 29213. Description: Minimum Inhibitory Concentration (MIC) in LB media. To be noted: ATCC29213, read-out: Minimum Inhibitory Concentration S. aureus ATCC 29213. Here is the method: as §1
For series [14], the system named is Klebsiella pneumoniae ATCC 13883. Put plainly: Minimum Inhibitory Concentration (MIC) in LB media. The following applies: ATCC13883, read-out: Minimum Inhibitory Concentration K. pneumoniae ATCC 13883. Here is the method: as §1
Series [15] deals with E. coli ATCC25922. Put plainly: Antibacterial susceptibility study, reference strain, CLSI guidelines.
Series [16] concerns E. coli clinical strains. Description: Antibacterial susceptibility studies (MIC50 and MIC90), clinical strains, CLSI guidelines.
[17] abbreviates: Klebsiella pneumoniae, read-out: MIC50.
Where [18] appears, read: Klebsiella pneumoniae, read-out: MIC90.
Where [19] appears, read: Enterobacter cloacae, read-out: MIC50.
Where [20] appears, read: Enterobacter cloacae, read-out: MIC90.
The mark [21] stands for this setting: Acinetobacter baumannii, read-out: MIC50.
The mark [22] stands for this setting: Acinetobacter baumannii, read-out: MIC90.
The mark [23] stands for this setting: Escherichia coli, read-out: MIC50.
[24] abbreviates: Escherichia coli, read-out: MIC90.

Structures are written as SMILES. In brackets after ≈: the same amount, converted by molar mass. Read-outs that look alike come from different tables or passages of the source.

Turning to `Cn1c(=O)cnc2ccc(OCCNC[C@H]3CN(c4cnc5c(n4)NC(=O)CO5)C(=O)O3)nc21` [Compound 7, (S)-6-(5-(((2-((4-methyl-3-oxo-3,4-dihydropyrido[2,3-b]pyrazin-6-yl)oxy)ethyl)amino)methyl)-2-oxooxazolidin-3-yl)-2H-pyrazino[3,2-b][1,4]oxazin-3(4H)-one], the Minimum (MIC) in series [1] worked out at 0.125 µg/mL; in [2], 0.06 µg/mL; in series [4], 0.06; in [7], 0.06 µg/mL; in [16], 0.03 µg/mL. Moreover, the MIC50 in series [1] (setting [17]) amounted to 1 µg/mL (≈ 2.13 µM); in series [2] (setting [19]), 0.5 µg/mL (≈ 1.07 µM); in series [4] (setting [21]), 0.5 µg/mL (≈ 1.07 µM); in series [7] (read-out: MIC50) it was 0.5 µg/mL (≈ 1.07 µM); in [16] (setting [23]), 0.25 µg/mL (≈ 0.534 µM). For the same molecule, the MIC90 in [1] (setting [18]) is 4 µg/mL (≈ 8.54 µM); in series [2] (setting [20]), 2 µg/mL (≈ 4.27 µM); in series [4] (setting [22]), 0.5 µg/mL (≈ 1.07 µM); in series [7] (read-out: MIC90) it was 2 µg/mL (≈ 4.27 µM); in series [16] (setting [24]), 0.5 µg/mL (≈ 1.07 µM). In series [3], this molecule came in with an IC50 greater than 300 µM. The ATCC19606 (MIC) in series [5] turned out to be 0.25 µg/mL. In addition, the ATCC27853 (MIC) in [6] is 1 µg/mL. For the same molecule, the ATCC13883 (MIC) in series [8] turned out to be 0.13 µg/mL. In addition, the MIC in series [9] was found to be 1 µg/mL (≈ 2.13 µM); in series [10], 0.25 µg/mL (≈ 0.534 µM); in [11] it was 0.06 µg/mL (≈ 0.128 µM); in [12] it was 0.25 µg/mL (≈ 0.534 µM); in [13], 0.06 µg/mL (≈ 0.128 µM); in series [14] it was 0.13 µg/mL (≈ 0.278 µM). Also, the ATCC25922 (MIC) in series [15] came to 0.06 µg/mL.
For the molecule `Cn1c(=O)ccc2ncc(OCCNC[C@H]3CN(c4cnc5c(n4)NC(=O)CS5)C(=O)O3)nc21` [Compound 14, (S)-5-(((2-((5-Methyl-6-oxo-5,6-dihydropyrido[2,3-b]pyrazin-3-yl)oxy)ethyl)amino)methyl)-3-(3-oxo-3,4-dihydro-2H-pyrazino[2,3-b][1,4]thiazin-6-yl)oxazolidin-2-one], the Minimum (MIC) in series [1] stood at 0.03 µg/mL; in series [2] it was 0.03 µg/mL; in [4] it was 0.03; in series [7], 0.06 µg/mL; in series [16], 0.03 µg/mL. The MIC50 in series [1] (setting [17]) was 0.25 µg/mL (≈ 0.516 µM); in series [2] (setting [19]) it was 0.25 µg/mL (≈ 0.516 µM); in series [4] (setting [21]), 0.25 µg/mL (≈ 0.516 µM); in [7] (read-out: MIC50), 0.5 µg/mL (≈ 1.03 µM); in series [16] (setting [23]), 0.06 µg/mL (≈ 0.124 µM). For the same molecule, the MIC90 in [1] (setting [18]) worked out at 0.5 µg/mL (≈ 1.03 µM); in series [2] (setting [20]), 0.5 µg/mL (≈ 1.03 µM); in series [4] (setting [22]), 0.5 µg/mL (≈ 1.03 µM); in [7] (read-out: MIC90), 1 µg/mL (≈ 2.06 µM); in series [16] (setting [24]) it was 0.25 µg/mL (≈ 0.516 µM). For the same molecule, the IC50 in series [3] was greater than 150 µM. The same molecule gave an ATCC19606 (MIC) in series [5] of 0.03 µg/mL. For the same molecule, the ATCC27853 (MIC) in series [6] came to 0.5 µg/mL. In addition, the ATCC13883 (MIC) in [8] was 0.03 µg/mL. Further, the MIC in series [9] was 0.5 µg/mL (≈ 1.03 µM); in [10] it was 0.03 µg/mL (≈ 0.0619 µM); in series [11] it was 0.03 µg/mL (≈ 0.0619 µM); in series [12], 0.03 µg/mL (≈ 0.0619 µM); in [13] it was no more than 0.03 µg/mL; in series [14] it was 0.03 µg/mL (≈ 0.0619 µM). For the same molecule, in series [15], the ATCC25922 (MIC) was 0.03 µg/mL.
`C[C@@H](O)[C@H]1C(=O)N2C(C(=O)O)=C(S[C@@H]3CN[C@H](C(=O)N(C)C)C3)[C@H](C)[C@H]12` [Meropenem, reference compound]: the MIC50 in series [1] came out at 1 µg/mL (≈ 2.61 µM); in series [2], 0.25 µg/mL (≈ 0.652 µM); in [4] it was 8 µg/mL (≈ 20.9 µM); in series [7], 2 µg/mL (≈ 5.22 µM); in series [16] it was 0.06 µg/mL (≈ 0.156 µM). The MIC90 in series [1] is 16 µg/mL (≈ 41.7 µM); in series [2], 16 µg/mL (≈ 41.7 µM); in series [4] it was 32 µg/mL (≈ 83.4 µM); in series [7] it was 8 µg/mL (≈ 20.9 µM); in series [16] it was 4 µg/mL (≈ 10.4 µM). The Minimum (MIC) in series [1] stood at 0.03 µg/mL; in series [2] it was 0.06 µg/mL; in [4] it was 0.03125; in series [7], 0.03 µg/mL; in [16] it was 0.03 µg/mL. For the same molecule, the ATCC19606 (MIC) in [5] was determined as 0.5 µg/mL. In addition, in series [6], the ATCC27853 (MIC) was 0.5 µg/mL. In [8], this molecule yielded an ATCC13883 (MIC) of 0.06 µg/mL. The same molecule registered an ATCC25922 (MIC) in series [15] of 0.06 µg/mL.
